From patent publication US12378250B2, “Tricyclic compound as IRAK4 inhibitor” (KOREA RESEARCH INSTITUTE OF CHEMICAL TECHNOLOGY, priority 2018, dated 2025)

Biological target: T1, IRAK4 enzyme (Homo sapiens, UniProt Q9NWZ3)
T1 sequence (Q9NWZ3 1-460): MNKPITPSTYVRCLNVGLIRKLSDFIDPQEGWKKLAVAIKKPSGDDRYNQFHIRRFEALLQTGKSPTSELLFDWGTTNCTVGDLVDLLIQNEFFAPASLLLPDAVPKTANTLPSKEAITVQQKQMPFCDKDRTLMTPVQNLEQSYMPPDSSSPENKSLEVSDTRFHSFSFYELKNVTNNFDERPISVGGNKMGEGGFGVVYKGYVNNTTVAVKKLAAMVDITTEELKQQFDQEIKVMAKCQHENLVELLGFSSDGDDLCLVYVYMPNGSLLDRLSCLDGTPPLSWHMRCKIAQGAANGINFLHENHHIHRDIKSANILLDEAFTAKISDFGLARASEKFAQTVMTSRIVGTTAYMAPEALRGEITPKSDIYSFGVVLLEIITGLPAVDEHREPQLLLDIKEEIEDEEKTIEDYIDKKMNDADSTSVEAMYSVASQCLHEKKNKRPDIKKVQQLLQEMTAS
Experiment: IRAK4 enzyme inhibition degree (bead-based kinase assay, peptide substrate BMKC-2, 100 μM ATP)
Assay type: biochemical
Settings: for inhibition at 1 µM: compound 1 μM
Protocol: 2.5 μl of a compound diluted to 4-fold of a final concentration was put into a 384-well white plate (low volume). 2.5 μl of 0.4 ng/μl IRAK4 enzyme was added thereto, and the resulting mixture was totally reacted for 10 minutes. 5 μl of a mixed liquid of a 6 μM peptide substrate (BMKC-2) and 100 μM ATP was added thereto, the resulting mixture was reacted at room temperature for 60 minutes, then 2.5 μl of 10 mM EDTA was added thereto, and the resulting mixture was reacted again for 10 minutes. 40 nM anti-phospho Thr antibody was aliquoted to 2.5 μl each, 5 μl of a mixed solution of a 160 μl/ml acceptor bead and a donor bead was added thereto, and then the resulting mixture was reacted at room temperature for 60 minutes. Fluorescence signals were measured using a bead experimental apparatus (Fusion alpha-FP Microplate Reader, Perkin Elmer Inc.).
From the detected signal, an activity inhibition rate [% inhibition degree=(the average value of a compound−the average value of a negative control)/(the average value of a positive control−the average value of a negative control)×100] was calculated, and is shown in [Table 1]. Further, a % inhibition degree of the compound at each concentration was obtained, and then a 50% inhibition concentration (IC50 value) was analyzed by a non-linear regression analysis.

SMILES	inhibition at 1 µM	IC50
CCOC(=O)c1ccc2[nH]c3ncnc(Nc4ccc(OC)cc4)c3c2c1 [Compound 5bc, ethyl 4-((4-methoxyphenyl)amino)-9H-pyrimido[4,5-b]indole-6-carboxylate]	9%	–
COC(=O)c1ccc2c(c1)[nH]c1ncnc(Nc3ccc(N4CCOCC4)cc3)c12 [Compound 5db, methyl 4-((4-morpholinophenyl)amino)-9H-pyrimido[4,5-b]indole-7-carboxylate]	< 1%	–
N#Cc1cncc(-c2ccc3[nH]c4ncnc(N[C@H]5CC[C@H](N6CCOCC6)CC5)c4c3c2)c1 [Compound 6aao, 5-(4-((trans-4-morpholinocyclohexyl)amino)-9H-pyrimido[4,5-b]indol-6-yl) nicotinonitrile]	74%	0.063 µM
N#Cc1cc(F)cc(-c2ccc3[nH]c4ncnc(N[C@H]5CC[C@H](N6CCOCC6)CC5)c4c3c2)c1 [Compound 6aap, 3-fluoro-5-(4-((trans-4-morpholinocyclohexyl)amino)-9H-pyrimido[4,5-b]indol-6-yl) benzonitrile]	56%	0.78 µM
CC(C)(C)OC(=O)N1CCC(n2cc(-c3ccc4[nH]c5ncnc(N[C@H]6CC[C@H](N7CCOCC7)CC6)c5c4c3)cn2)CC1 [Compound 6aaq, tert-butyl 4-(4-(4-((trans-4-morpholinocyclohexyl)amino)-9H-pyrimido[4,5-b]indol-6-yl)-1H-pyrazol-1-yl)piperidine-1-carboxylate]	59%	0.565 µM
c1nc(N[C@H]2CC[C@H](N3CCOCC3)CC2)c2c(n1)[nH]c1ccc(-c3cnn(C4CCNCC4)c3)cc12 [Compound 6aar, N-(trans-4-morpholinocyclohexyl)-6-(1-(piperidin-4-yl)-1H-pyrazol-4-yl)-9H-pyrimido[4,5-b]indole-4-amine]	78%	0.137 µM
CS(=O)(=O)N1CCC(n2cc(-c3ccc4[nH]c5ncnc(N[C@H]6CC[C@H](N7CCOCC7)CC6)c5c4c3)cn2)CC1 [Compound 6aas, 6-(1-(1-(methylsulfonyl)piperidin-4-yl)-1H-pyrazol-4-yl)-N-(trans-4-morpholinocyclohexyl)-9H-pyrimido[4,5-b]indole-4-amine]	79%	0.05 µM
Cn1cc(-c2ccc3[nH]c4ncnc(NCCN5CCOCC5)c4c3c2)cn1 [Compound 6ada, 6-(1-methyl-1H-pyrazol-4-yl)-N-(2-morpholinoethyl)-9H-pyrimido[4,5-b]indole-4-amine]	53%	0.861 µM
Cn1cc(-c2ccc3[nH]c4ncnc(NCCCN5CCOCC5)c4c3c2)cn1 [Compound 6aea, 6-(1-methyl-1H-pyrazol-4-yl)-N-(3-morpholinopropyl)-9H-pyrimido[4,5-b]indole-4-amine]	34%	1.53 µM
Cn1cc(-c2ccc3[nH]c4ncnc(NCCN5CCN(C(=O)OC(C)(C)C)CC5)c4c3c2)cn1 [Compound 6afa, tert-butyl 4-(2-((6-(1-methyl-1H-pyrazol-4-yl)-9H-pyrimido[4,5-b]indol-4-yl)amino)ethyl)piperazine-1-carboxylate]	36%	1.05 µM
Cn1cc(-c2ccc3[nH]c4ncnc(OCCN5CCOCC5)c4c3c2)cn1 [Compound 6aha, 4-(2-((6-(1-methyl-1H-pyrazol-4-yl)-9H-pyrimido[4,5-b]indol-4-yl)oxy)ethyl)morpholine]	41%	1.04 µM
COC(=O)c1ccc2c(c1)[nH]c1nc(-c3cccc([N+](=O)[O-])c3)nc(N[C@H]3CC[C@H](N4CCOCC4)CC3)c12 [Compound 11b, methyl 4-((trans-4-morpholinocyclohexyl)amino)-2-(3-nitrophenyl)-9H-pyrimido[4,5-b]indole-7-carboxylate]	10%	–
Fc1cncc(-c2ccc3[nH]c4ncnc(N[C@H]5CC[C@H](N6CCOCC6)CC5)c4c3n2)c1 [Compound 23a, 6-(5-fluoropyridin-3-yl)-N-(trans-4-morpholinocyclohexyl)-9H-pyrido[2′,3′:4,5]pyrrolo[2,3-d]pyrimidin-4-amine]	91%	0.079 µM

More lines, now with the values ahead:

inhibition at 1 µM	IC50	SMILES
70%	0.308 µM	c1nc(N[C@H]2CC[C@H](N3CCOCC3)CC2)c2c(n1)[nH]c1ccc(-c3nnc[nH]3)cc12 [Compound 6baa, N-(trans-4-morpholinocyclohexyl)-6-(4H-1,2,4-triazol-3-yl)-9H-pyrimido[4,5-b]indole-4-amine]
86%	0.21 µM	Cc1nnc(-c2ccc3[nH]c4ncnc(N[C@H]5CC[C@H](N6CCOCC6)CC5)c4c3c2)[nH]1 [Compound 6bab, 6-(5-methyl-4H-1,2,4-triazol-3-yl)-N-(trans-4-morpholinocyclohexyl)-9H-pyrimido[4,5-b]indole-4-amine]
60%	0.842 µM	Cn1cnnc1-c1ccc2[nH]c3ncnc(N[C@H]4CC[C@H](N5CCOCC5)CC4)c3c2c1 [Compound 6bac, 6-(4-methyl-4H-1,2,4-triazol-3-yl)-N-(trans-4-morpholinocyclohexyl)-9H-pyrimido[4,5-b]indole-4-amine]
52%	0.928 µM	c1nc(N[C@H]2CC[C@H](N3CCOCC3)CC2)c2c(n1)[nH]c1ccc(-c3nnc4n3CCC4)cc12 [Compound 6bad, 6-(6,7-dihydro-5H-pyrrolo[2,1-c][1,2,4]triazol-3-yl)-N-(trans-4-morpholinocyclohexyl)-9H-pyrimido[4,5-b]indole-4-amine]
94%	0.008 µM	Cc1nnc(-c2ccc3[nH]c4ncnc(N[C@H]5CC[C@H](N6CCOCC6)CC5)c4c3c2)o1 [Compound 6bae, 6-(5-methyl-1,3,4-oxadiazol-2-yl)-N-(trans-4-morpholinocyclohexyl)-9H-pyrimido[4,5-b]indole-4-amine]
70%	0.509 µM	O=c1[nH]nc(-c2ccc3[nH]c4ncnc(N[C@H]5CC[C@H](N6CCOCC6)CC5)c4c3c2)[nH]1 [Compound 6baf, 5-(4-((trans-4-morpholinocyclohexyl)amino)-9H-pyrimido[4,5-b]indol-6-yl)-2,4-dihydro-3H-1,2,4-triazole-3-one]
